Structures can show the parent of a compound that is named as a salt.
assay: MIC of test compounds against various organisms; assay type: cell-based; conditions: not given
Procedure: The MIC (μg/ml) of test compounds against various organisms was determined including:
S. epidermidis CL7, S. aureus WCUH29, S. pneumoniae 1629, S. pyogenes CN10, H. influenzae ATCC 49247, E. faecalis 2, M. catarrhalis Ravasio, E. coli 7623.

Structure (SMILES) | MIC
O=C1CSc2ccc(CN[C@H]3CC[C@H](C(=O)Nc4ccnc5ccccc45)CC3)nc2N1 [Example 3, trans-4-[(3-Oxo-3,4-dihydro-2H-pyrido[3,2-b][1,4]thiazin-6-ylmethyl)-amino]-cyclohexanecarboxylic acid quinolin-4-ylamide dihydrochloride] | ≤ 8 µg/mL
N#Cc1ccc2cccc(NC(=O)[C@@H]3CC[C@@H](NCc4cc5c(cn4)OCCO5)[C@@H](O)C3)c2n1 [Example 37, (1R,3S,4R)-4-[(2,3-Dihydro-[1,4]dioxino[2,3-c]pyridin-7-ylmethyl)-amino]-3-hydroxy-cyclohexanecarboxylic acid (2-cyano-quinolin-8-yl)-amide hydrochloride] | ≤ 2 µg/mL

same assay, conditions: versus all these organisms (panel of 8 strains); read-out: MIC

Structure (SMILES) | MIC
N#Cc1ccc2cccc(NC(=O)[C@]3(O)CC[C@@H](NCc4ccc5c(n4)NC(=O)CS5)CC3)c2n1 [Example 10, 1-Hydroxy-t-4-[(3-oxo-3,4-dihydro-2H-pyrido[3,2-b][1,4]thiazin-6-ylmethyl)-amino]-r-cyclohexanecarboxylic acid (2-cyano-quinolin-8-yl)-amide dihydrochloride] | ≤ 2 µg/mL
COc1cccc2nccc(NC(=O)[C@]3(O)CC[C@@H](NCc4ccc5c(n4)NC(=O)CS5)CC3)c12 [Example 28, 1-Hydroxy-t-4-[(3-oxo-3,4-dihydro-2H-pyrido[3,2-b][1,4]thiazin-6-ylmethyl)-amino]-r-cyclohexanecarboxylic acid (5-methoxy-quinolin-4-yl)-amide dihydrochloride] | ≤ 8 µg/mL
Cc1cnc2cccc(NC(=O)[C@]3(O)CC[C@@H](NCc4ccc5c(n4)NC(=O)CS5)CC3)c2n1 [Example 25, 1-Hydroxy-t-4-[(3-oxo-3,4-dihydro-2H-pyrido[3,2-b][1,4]thiazin-6-ylmethyl)-amino]-r-cyclohexanecarboxylic acid (3-methyl-quinoxalin-5-yl)-amide dihydrochloride] | ≤ 2 µg/mL
Cc1ccc2cccc(NC(=O)[C@]3(O)CC[C@@H](NCc4ccc5c(n4)NC(=O)CS5)CC3)c2n1 [Example 19, 1-Hydroxy-t-4-[(3-oxo-3,4-dihydro-2H-pyrido[3,2-b][1,4]thiazin-6-ylmethyl)-amino]-r-cyclohexanecarboxylic acid (2-methyl-quinolin-8-yl)-amide dihydrochloride] | ≤ 2 µg/mL
N#Cc1ccc2cccc(NC(=O)[C@@H]3CC[C@@H](NCc4ccc5c(n4)NC(=O)CS5)[C@H](O)C3)c2n1 [Example 14, (1R,3R,4R)-3-Hydroxy-4-[(3-oxo-3,4-dihydro-2H-pyrido[3,2-b][1,4]thiazin-6-ylmethyl)-amino]-cyclohexanecarboxylic acid (2-cyano-quinolin-8-yl)-amide hydrochloride] | ≤ 2 µg/mL
COc1ccc2cccc(CC[C@]3(O)CC[C@@H](NCc4ccc5c(n4)NC(=O)CO5)CC3)c2n1 [Example 7, 6-({4-Hydroxy-4-[2-(2-methoxy-quinolin-8-yl)-ethyl]-cyclohexylamino}-methyl)-4H-pyrido[3,2-b][1,4]oxazin-3-one] | ≤ 2 µg/mL
COc1ccc2cccc(CCC3(O)CCC(NCc4ccc5c(n4)NC(=O)CS5)CC3)c2n1 (stereo not drawn) [Example 8, 6-({4-Hydroxy-4-[2-(2-methoxy-quinolin-8-yl)-ethyl]-cyclohexylamino}-methyl)-4H-pyrido[3,2-b][1,4]thiazin-3-one] | ≤ 2 µg/mL
N#Cc1ccc2cccc(NC(=O)[C@H]3CC[C@H](NCc4ccc5c(n4)NC(=O)CS5)[C@H](O)C3)c2n1 [Example 12, (1 S,3R,4S)-3-Hydroxy-4-[(3-oxo-3,4-dihydro-2H-pyrido[3,2-b][1,4]thiazin-6-ylmethyl)-amino]-cyclohexanecarboxylic acid (2-cyano-quinolin-8-yl)-amide hydrochloride] | ≤ 2 µg/mL
COc1ccc2cccc(CC[C@]3(O)CC[C@@H](NCc4cnc5c(c4)NC(=O)CS5)CC3)c2n1 [Example 21, 7-({r-4-Hydroxy-4-[2-(2-methoxy-quinolin-8-yl)-ethyl]-c-cyclohexylamino}-methyl)-1H-pyrido[2,3-b][1,4]thiazin-2-one] | ≤ 2 µg/mL
Cc1ccc2cccc(NC(=O)[C@]3(O)CC[C@@H](NCc4cc5c(cn4)OCCO5)CC3)c2n1 [Example 35, t-4-[(2,3-Dihydro-[1,4]dioxino[2,3-c]pyridin-7-ylmethyl)-amino]-1-hydroxy-c-cyclohexanecarboxylic acid (2-methyl-quinolin-8-yl)-amide dihydrochloride] | ≤ 8 µg/mL
N#Cc1ccc2cccc(NC(=O)[C@@H]3CC[C@@H](NCc4ccc5c(n4)NC(=O)CS5)[C@@H](O)C3)c2n1 [Example 16, (1R,3S,4R)-3-Hydroxy-4-[(3-oxo-3,4-dihydro-2H-pyrido[3,2-b][1,4]thiazin-6-ylmethyl)-amino]-cyclohexanecarboxylic acid (2-cyano-quinolin-8-yl)-amide hydrochloride] | ≤ 2 µg/mL
COc1ccc2cccc(NC(=O)[C@]3(O)CC[C@@H](NCc4ccc5c(n4)NC(=O)CO5)CC3)c2n1 [Example 17, 1-Hydroxy-t-4-[(3-oxo-3,4-dihydro-2H-pyrido[3,2-b][1,4]oxazin-6 ylmethyl)-amino]-r-cyclohexanecarboxylic acid (2-methoxy-quinolin-8-yl)-amide] | ≤ 2 µg/mL
N#Cc1ccc2cccc(NC(=O)[C@@H]3CC[C@@H](NCc4ccc5c(n4)NC(=O)CO5)[C@@H](O)C3)c2n1 [Example 9, (1R,3S,4R)-3-Hydroxy-4-[(3-oxo-3,4-dihydro-2H-pyrido[3,2-b][1,4]oxazin-6-ylmethyl)-amino]-cyclohexanecarboxylic acid (2-cyano-quinolin-8-yl)-amide hydrochloride] | ≤ 2 µg/mL
Cc1ccc2cccc(NC(=O)[C@]3(O)CC[C@@H](NCc4ccc5c(n4)NC(=O)CO5)CC3)c2n1 [Example 18, 1-Hydroxy-t-4-[(3-oxo-3,4-dihydro-2H-pyrido[3,2-b][1,4]oxazin-6-ylmethyl)-amino]-r-cyclohexanecarboxylic acid (2-methyl-quinolin-8-yl)-amide dihydrochloride] | ≤ 2 µg/mL
Cn1ccc2cccc(NC(=O)[C@]3(O)CC[C@@H](NCc4ccc5c(n4)NC(=O)CS5)CC3)c2c1=O [Example 26, 1-Hydroxy-t-4-[(3-oxo-3,4-dihydro-2H-pyrido[3,2-b][1,4]thiazin-6-ylmethyl)-amino]-r-cyclohexanecarboxylic acid (2-methyl-1-oxo-1,2-dihydro-isoquinolin-8-yl)-amide hydrochloride] | ≤ 2 µg/mL
COc1cnc2cccc(NC(=O)[C@]3(O)CC[C@@H](NCc4ccc5c(n4)NC(=O)CS5)CC3)c2n1 [Example 34, 1-Hydroxy-t-4-[(3-oxo-3,4-dihydro-2Hpyrido[3,2-b][1,4]thiazin-6-ylmethyl)-amino]-r-cyclohexanecarboxylic acid (3-methoxy-quinoxalin-5-yl)-amide hydrochloride] | ≤ 2 µg/mL
Cc1ccc2cccc(NC(=O)[C@]3(O)CC[C@@H](NCc4cc5c(cn4)OCC(=O)N5)CC3)c2n1 [Example 22, 1-Hydroxy-t-4-[(2-oxo-2,3-dihydro-1H-pyrido[3,4-b][1,4]oxazin-7-ylmethyl)-amino]-r-cyclohexanecarboxylic acid (2-methyl-quinolin-8-yl)-amide dihydrochloride] | ≤ 2 µg/mL

same assay, conditions: versus at least one of these organisms (panel of 8 strains); read-out: MIC

Structure (SMILES) | MIC
O=C1CSc2ccc(CN[C@H]3CC[C@](O)(C(=O)Nc4ccnc5c4OCCO5)CC3)nc2N1 [Example 2, 1-Hydroxy-t-4-[(3-oxo-3,4-dihydro-2H-pyrido[3,2-b][1,4]thiazin-6-ylmethyl)-amino]-r-cyclohexanecarboxylic acid (2,3-dibydro-[1,4]dioxino[2,3-b]pyridin-8-yl)-amide dihydrochloride] | ≤ 16 µg/mL

same assay, conditions: versus some of these organisms (panel of 8 strains); read-out: MIC

Structure (SMILES) | MIC
CC1CNc2cccc(NC(=O)[C@]3(O)CC[C@@H](NCc4ccc5c(n4)NC(=O)CO5)CC3)c2N1 (stereo partly drawn) [Example 33, 1-Hydroxy-t-4-[(3-oxo-3,4-dihydro-2H-pyrido[3,2-b][1,4]oxazin-6-ylmethyl)-amino]-c-cyclohexanecarboxylic acid (3-methyl-1,2,3,4-tetrahydro-quinoxalin-5-yl)-amide dihydrochloride] | ≤ 2 µg/mL

Reference: US7622481B2, “Antibacterial compounds” (priority 2003, dated 2009)
